Measured values published in patent US9604974B2, “Compounds as modulator of JAK-STAT pathway, methods and applications thereof” (UNIVERSITY OF MYSORE, priority 2015, dated 2017).

The molecules below were run on HepG2 cells (assay: MTT anti-proliferative assay, HepG2). Conditions: Homo sapiens; HepG2 cells after 72 hours, MTT.
Assay type: cell-based
Protocol: The anti-proliferative activity of Formula I compounds are studied on HepG2 cells using MTT assay. Briefly, the cells (2.5×10^4/ml) are incubated in triplicate in a 96-well plate in the presence or absence of different concentrations of compounds in a final volume of 0.2 ml up to 72 hours at 37° C. Thereafter, 20 μl MTT solution (5 mg/ml in PBS) is added to each well. After 2 hours of incubation at 37° C., 0.1 ml lysis buffer (20% SDS, 50% dimethyl-formamide) is added; incubation is continued overnight at 37° C.; and the optical density (OD) at 570 nm is measured by Tecan plate reader.
Molecule `COc1ccc(C2CNC(c3coc4ccccc4c3=O)OC23CCCCC3)cc1` (stereo not drawn) [Compound 8, 3-[5-(4-Methoxy-phenyl)-1-oxa-3-aza-spiro[5.5]undec-2-yl]-chromen-4-one] has an IC50 of 28.8 µM.
Molecule `COc1ccc(C2CNC(c3c(-c4ccccc4)[nH]c4ccccc34)OC23CCCCC3)cc1` (stereo not drawn) [Compound 5, 2-(2-phenylindyl)-5-(4-methoxy-phenyl)-1-oxa-3-aza spiro(5,5) undecane] has an IC50 of 9.8 µM.
In the case of `COc1ccc(C2CNC(c3ccc4c(c3)CCO4)OC23CCCCC3)cc1` (stereo not drawn) [Compound 11, 2-(2,3-Dihydro-benzofuran-5-yl)-5-(4-methoxy-phenyl)-1-oxa-3-aza-spiro[5.5]undecane], the IC50 is reported as > 50 µM.
`CCCCc1nc(Cl)c(C2NCC(c3ccc(OC)cc3)C3(CCCCC3)O2)[nH]1` (stereo not drawn) [Compound 2, 2-(2-butyl-5-chloro-3H-imidazol-4-yl)-5-(4-methoxy-phenyl)-1-oxa-3-aza spiro(5,5) undecane] gave an IC50 of 38.7 µM.
Molecule `COc1ccc(C2CNC(c3c[nH]c4ccccc34)OC23CCCCC3)cc1` (stereo not drawn) [Compound 6, 2-(indyl)-5-(4-methoxy-phenyl)-1-oxa-3-aza spiro(5,5) undecane] has an IC50 of 28.5 µM.
`COc1ccc(C2CNC(c3ccc(Br)cc3)OC23CCCCC3)cc1` (stereo not drawn) [Compound 4, 2-(4-Bromophenyl)-5-(4-methoxy-phenyl)-1-oxa-3-aza spiro(5,5) undecane] gave an IC50 of 37.1 µM.
For `CCCCc1nc(Cl)c(C2NCC(c3ccc(OC)cc3)C3(CCCCC3)O2)n1Cc1ccc(-c2ccccc2C#N)cc1` (stereo not drawn) [Compound 3, 2-(2-butyl-5-chloro-3-(4-(2-cyanophenyl)1-benzyl)-imidazol-4-yl)-5-(4-methoxy-phenyl)-1-oxa-3-aza spiro(5,5) undecane], the IC50 was 14.3 µM.
`CCCCc1nc(Cl)c(C2NCC(c3ccc(OC)cc3)C3(CCCCC3)O2)n1Cc1ccc(Oc2ccccc2)cc1` (stereo not drawn) [Compound 7] showed an IC50 of 15.8 µM.
With `COc1ccc(C2CN(Cc3ccc(-c4ccccc4C#N)cc3)C(c3c(Cl)cccc3Cl)OC23CCCCC3)cc1` (stereo not drawn) [Compound 12] the IC50 was > 50 µM.
`COc1ccc(C2CNC(c3ccc(N(C)C)cc3)OC23CCCCC3)cc1` (stereo not drawn) [Compound 13, 2-(4-dimethylaminophenyl)-5-(4-methoxy-phenyl)-1-oxa-3-aza spiro(5,5) undecane] was tested, and the IC50 was > 50 µM.
Molecule `COc1ccc(C2CNC(c3c(Cl)cccc3Cl)OC23CCCCC3)cc1` (stereo not drawn) [Compound 10, 2-(2,6-dichlorophenyl)-5-(4-methoxy-phenyl)-1-oxa-3-aza spiro(5,5) undecane] has an IC50 of 42.4 µM.
In the case of `COc1ccc(C2CNC(c3c(C)[nH]c4ccccc34)OC23CCCCC3)cc1` (stereo not drawn) [Compound 9, 2-(2-methylindyl)-5-(4-methoxy-phenyl)-1-oxa-3-aza spiro(5,5) undecane], the IC50 is reported as > 50 µM.

Each molecule was assayed on phospho-STAT3 (Y705) (assay: Western blot of constitutive phospho-STAT3 (Y705) in HepG2). Conditions: HepG2, 6 hours.
Assay type: cell-based, human
Protocol: FIG. 2 depicts the suppression of phospho-STAT3 by compound 1 (CIMO) in a dose dependent manner [A]. HepG2 cells (5×10^5/mL) are treated with the indicated concentrations of CIMO for 6 hours, after which whole-cell extracts are prepared and resolved on SDS-PAGE gel, electrotransferred onto nitrocellulose membrane, and probed for phospho-STAT3. The same blot is stripped and reprobed with STAT3 antibody to verify equal protein loading. […] HepG2 cells (5×10^5/mL) are treated with the indicated concentrations of AG490 for about 6 hours, after which Western Blotting is done as described for [A]. [C] depicts the suppression of phospho-STAT3 levels by Compound 1 (CIMO) in a time-dependent manner. HepG2 cells (5×10^5/mL) are treated with 10 μMol/L CIMO for the indicated times, after which Western blotting is done as described for [A]. [D] depicts that compound 1 (CIMO) has no effect on phospho-STAT3 (Ser-727) and STAT3 protein expression. HepG2 cells (5×10^5/mL) are treated with 10 μMol/L CIMO for the indicated times, after which Western Blotting is done as described for [A] and membrane is probed using antibodies against phospho-STAT3 (Ser-727) and STAT3. […] HepG2 cells (1×10^5/mL) are incubated with or without 10 μMol/L CIMO for about 6 hours and then analyzed for the intracellular distribution of STAT3 by immunocytochemistry. The same slides are counterstained for nuclei with Hoechst (50 ng/mL) for about 5 minutes and analyzed under an fluorescencemicroscope. […] HepG2 cells (5×10^5/mL) are treated with 10 μMol/L CIMO, after which whole-cell extracts are prepared, resolved in SDS-PAGE, electrotransferred onto nitrocellulose membrane, and probed with phospho-Src, phospho-JAK1 and phospho-JAK2 antibodies. The same blots are stripped and reprobed with Src, JAK1 and JAK2 antibodies to verify equal protein loading. [G] depicts the suppression of STAT3 DNA binding ability by Compound 1 (CIMO) in HepG2 cells. HepG2 cells are treated with 10 μMol/L CIMO for the indicated time, nuclear extracts are prepared, and 5 μg of the nuclear extract protein is used for ELISA-based DNA-binding assay.
CIMO is tested towards the inhibition of constitutive activation of STAT3 in HepG2 cells by Western Blotting via antibodies recognising phospho-STAT3 (Y705). For detection of phospho-proteins, CIMO treated whole-cell extracts are lysed in lysis buffer [20 mM Tris (pH 7.4), 250 mM NaCl, 2 mM Ethylenediaminetetraacetic acid (pH 8.0), 0.1% Triton-X-100, 0.01 mg/ml aprotinin, 0.005 mg/ml leupeptin, 0.4 mM phenylmethanesulfonylfluoride, and 4 mM NaVO4). Lysates are then spun at 14,000 rpm for about 10 minutes to remove insoluble material and resolved on SDS gel. After electrophoresis, the proteins are electrotransferred to a nitrocellulose membrane, blocked with 5% non-fat milk, and probed with various antibodies (1:1000) overnight at about 4° C. The blot is washed, exposed to HRP-conjugated secondary antibodies for about 1 hour, and finally examined by chemiluminescence (ECL; GE Healthcare, Little Chalfont, Buckinghamshire, UK).
With `N#C/C(=C/c1ccc(O)c(O)c1)C(=O)NCc1ccccc1` [AG490, reference compound] the “concentration of maximum inhibition of phospho-STAT3” value was 200 µM.

Same assay, conditions: HepG2, Western blot, dose and time course
`N#C/C(=C/c1ccc(O)c(O)c1)C(=O)NCc1ccccc1` [AG490, reference compound] was tested, and the “levels of phospho-STAT3 (Y705)” value was “decreases the phosphorylation of STAT3 in a dose-dependent manner”.

Same assay, conditions: HepG2, with 10 μMol/L CIMO, about 4 hours
In the case of sodium pervanadate [reference compound], the “effect on CIMO-induced inhibition of STAT3 activation” value is reported as “prevents CIMO-induced inhibition of STAT3 activation”.
